Test results taken from publication PMC8152814, “The modulatory role of sulfated and non-sulfated small molecule heparan sulfate-glycomimetics in endothelial dysfunction: absolute structural clarification, molecular docking and simulated dynamics, SAR analyses and ADMET studies” (RSC Medicinal Chemistry, 2021).

What was measured:
[1] = system: reactive oxygen species (ROS); experiment: ROS production in FFA-stressed cells; type: cell-based, human; settings: averaged % of increase (+) or decrease (−) compared to control (FFA induced oxidatively stressed endothelial cells), n = 3
Description: (§1) The assays focused on the production of nitric oxide (NO) and the upregulation of nitric oxide synthase (eNOS), the production of reactive oxygen species (ROS) and the activity of nicotinamide adenine dinucleotide phosphate (NADPH) oxidase (Table 2). From the hypothesised model of heparan sulfate-glycomimetic activity,[17] the glycomimetics are proposed to attenuate the binding of HGF to the cMET receptor. This disruption to MET-receptor activation is proposed to modulate intracellular phosphorylation leading to an upregulation of eNOS and increased output of extracellular NO. […] Overall, the cross examination of NO output and reduction of ROS was used to determine the therapeutic action of the triaged glycomimetics α-4, R-10, S-10 and β-5, as well as 3 non-sulfated intermediates α-2, α-3 and β-3, on free fatty acid (FFA) induced, oxidatively stressed endothelial cell cultures (Table 2).
(§2) Biological assay and AMDET experimental details […]
(§3) Preparation of FFA-albumin complexes and cell treatments
(§4) To generate the in vitro model of oxidative stress, sodium palmitate was bound to bovine serum albumin (BSA) as outlined by Chavez and Summers,S2 with modifications. Sodium palmitate (FFA) was dissolved in EtOH at 60 °C and diluted 1:100 in M199 media supplemented with 2% fatty acid-free bovine serum albumin (BSA) and incubated for 1 h at 37 °C. HepG2 cells were treated with 1 μmol/L of the synthesized HS-glycomimetics in the presence of palmitate (100 μmol/L) for 3 h or pre-treated with glycomimetics for 12 h followed by 3 h palmitate (100 μmol/L). Control cells were incubated in serum free M199 containing 2% (wt/vol) fatty acid-free BSA.
NO release assay and Quantification of ROS production […]
The auto-fluorescence was subtracted from each value. Cells were incubated with 10 μmol/L of the fluorescent probe: 2′-7′-dichlorodihydrofluorescein diacetate (CM-H2DCFDA, Sigma) for 30 min at 37 °C, and the level of fluorescence was determined (excitation 490 nm; emission 540 nm) using a microplate reader (BioTek).
(§5) The level of NADPH-enhanced superoxide anions (O2•−) in HepG2 homogenates was determined by lucigenin-enhanced chemiluminescence.S4 Following the various treatment conditions, cells were homogenized in a buffer (20 mmol/L H2KPO4 and 1 mmol/L EDTA supplemented with aprotinin, leuprotinin, pepstatin and PMSF). The total protein quantified using the Bicinchoninic acid (BCA) assay (Pierce Biotechnology). To 50 μg of total protein, NADPH (100 μmol/L) was added in a total volume of 500 μL, with lucigenin (5 μmol/L) and was injected automatically. Activity was determined by measuring luminescence over 200 s in a scintillation counter (Lumat LB 9507, Berthold, Germany). Basal values of NADPH oxidase activity were subtracted from the experimental values and expressed as RLU/min/μg protein […]
(§6) In situ quantification of ROS species
(§7) Superoxide dismutase (SOD) and catalase (CAT) activity assays, and in situ detection of vascular ROS content. The activity of the enzymes, SOD and CAT, was determined in cell homogenates using assay kits according to the manufacturer's instructions (Cayman; Cat No 706002 and 707002 respectively). A unit of SOD was defined as the amount of enzyme […]
(§8) Similarly, a unit of CAT was […]
defined as the amount required to form 1.0 nmol of formaldehyde per min at 25 °C.S5 […]
HepG2 cells were incubated in serum-free DMEM containing 2% fatty acid-free BSA (control) or palmitate conjugated BSA (100 μmol/L) in the presence of HS-glycomimetics (1 or 10 μmol/L) for 24 h. The cells were incubated for 30 min in Hepes-buffered solution containing 10 μmol/L dihydroethidium (DHE), which intercalates with DNA in the presence of ROS and is detectable by fluorescence. Cells were counterstained with the nuclear stain DAPI at 0.3 μmol/L. In the following 24 h, the cell cultures were examined using a fluorescence microscope (Leica DMIRB). Sections were photographed and fluorescence was quantified using ImageJ. […]

nitric oxide (NO) = experiment: NO release assay (DAF-2) in FFA-stressed cells; type: cell-based, human; settings: averaged % of increase (+) or decrease (−) compared to control (FFA induced oxidatively stressed endothelial cells), n = 3
Description: as §1, §2, §3, §4
NO release assay and Quantification of ROS production
NO release was determined using diaminofluorescein-2 (DAF-2).S3 The cells were washed with PBS and incubated with L-arginine (100 μmol/L in PBS) for 5 min at 37 °C before incubation with DAF-2 (0.1 μmol/L) for 2 min, followed by the calcium ionophore calimycin (A23187, 1 μmol L) for 30 min. L-NAME (100 μmol/L), a nitric oxide inhibitor (NOS), was also added 20 min before the addition of L-arginine in some experiments to determine the involvement of NOS. DAF-2 fluorescence (arbitrary units, AU) was quantified using a microplate reader (BioTek) with excitation and emission wavelengths of 485 nm and 540 nm, respectively. The auto-fluorescence was subtracted from each value. […]
(§9) H2DCFDA, Sigma) for 30 min at 37 °C, and the level of fluorescence was determined (excitation 490 nm; emission 540 nm) using a microplate reader (BioTek).
as §5, §6, §7, §8
(§10) defined as the amount required to form 1.0 nmol of formaldehyde per min at 25 °C.S5

[2] = Microsomal metabolic stability, rat liver microsomes; type: in vitro ADME; settings: liver microsomes (pooled); for microsomal CLint at 0.75 h, 3 µM / microsomal CLint at 3 µM: pH 7.4; for half-life at 0.75 h, 3 µM / half-life at 3 µM: pH 7.4, 3 µM, 0.5 mg/mL protein, read-out: RLM t1/2
Method: Microsomal Metabolic Stability […]
the reaction. The final incubation volume is 50 µL. A minus cofactor control incubation is […]
NADPH (minus NADPH). Two control compounds are included with each species. All incubations are performed singularly for each test compound. Each compound is incubated for 0, 5, 15, 30 and 45 min. The control (minus NADPH) is incubated for 45 min. The reactions […]
Elimination rate constant (k) = (- gradient)
Intrinsic clearance (CLint)(µL/min/mg protein) = where V = Incubation volume (µL)/Microsomal protein (mg) […]
specified limits (if available).
(Molecular Devices LLC), which simultaneously performs electrophysiology measurements for […]
All cell suspensions, buffers and […]

[3] = Microsomal metabolic stability, mouse liver microsomes; settings: liver microsomes (pooled), pH 7.4
Chemical stability = type: physicochemical
Description: | column: α-4; β-5; R-10; S-10

NADPH oxidase = NADPH oxidase activity (lucigenin chemiluminescence) in cell homogenates; type: cell-based, human; design: concentration or dose not given beside the values; settings: averaged % of increase (+) or decrease (−) compared to control (FFA induced oxidatively stressed endothelial cells), n = 3
Description: as §1, §2, §3
as §4, with “BSA. […]” for “BSA.”
as §9, §5, §6, §7, §8, §10

microsomal CLint at 3 µM [2] [µL/min/mg] | half-life at 3 µM [2] [h] | half-life at 3 µM [3] [h] | microsomal CLint at 3 µM [3] [µL/min/mg] | Compound | ROS production [1] [%] | NO production (nitric oxide (NO)) | microsomal CLint at 0.75 h, 3 µM [2] [µL/min/mg] | half-life at 0.75 h, 3 µM [2] [h] | half-life at 0.75 h, 3 µM [3] [h] | microsomal CLint at 0.75 h, 3 µM [3] [µL/min/mg] | Chemical stability (Chemical stability) | NADPH oxidase activity (NADPH oxidase) [%]
– | – | – | – | COC(=O)c1cc(OC[C@H](COS(=O)(=O)[O-])OS(=O)(=O)[O-])ccc1OCCCCOS(=O)(=O)[O-].[Na+].[Na+].[Na+] [Compound R-10, sodium (R)-3-(3-(methoxycarbonyl)-4-(4-(sulfonatooxy)butoxy)phenoxy)propane-1,2-diyl bis(sulfate)] | −23 | +52% | 4.11 | 5.63 | 57.5 | 0.402 | Yes | −31
– | – | – | – | COC(=O)c1cc(OC[C@@H](COS(=O)(=O)[O-])OS(=O)(=O)[O-])ccc1OCCCCOS(=O)(=O)[O-].[Na+].[Na+].[Na+] [Compound S-10, sodium (S)-3-(3-(methoxycarbonyl)-4-(4-(sulfonatooxy)butoxy)phenoxy)propane-1,2-diyl bis(sulfate)] | −39 | +63% | 12.8 | 1.82 | – | 0.333 | Yes | −27
0.649 | 35.7 | 8.03 | 2.88 | O=C([O-])c1cc(OC[C@H](COS(=O)(=O)[O-])OS(=O)(=O)[O-])ccc1OCC(COS(=O)(=O)[O-])OS(=O)(=O)[O-].[Na+].[Na+].[Na+].[Na+].[Na+] (mixture of isomers) [β-5, sodium 5-((R)-2,3-bis(sulfonatooxy)propoxy)-2-(2,3-bis(sulfonatooxy)propoxy)benzoate] | −29 | +62% | – | – | – | – | Yes | −31
9.56 | 2.42 | 30.7 | 0.755 | COC(=O)c1cc(OC[C@@H](COS(=O)(=O)[O-])OS(=O)(=O)[O-])ccc1OCC(COS(=O)(=O)[O-])OS(=O)(=O)[O-].[Na+].[Na+].[Na+].[Na+] (mixture of isomers) [α-4, sodium 3-(4-((S)-2,3-bis(sulfonatooxy)propoxy)-2-(methoxycarbonyl)phenoxy)propane-1,2-diyl bis(sulfate)] | −28 | +110% | – | – | – | – | Yes | −29
